Source: patent publication US9139523B2, “5-HT2B receptor antagonists” (Janssen Pharmaceutica, NV, priority 2010, dated 2015)

How the values were obtained:
[1] = target: T1, Alpha1A (Homo sapiens, UniProt P35348); test: Competitive radioligand binding, Alpha1A; details: CHO membranes, 3H-prazosin 0.25 nM; read-out: pIC50 Alpha1A (converted)
T1 construct: expressed in transfected cells; host or cells: CHO (membrane fraction)
T1 sequence (P35348 1-466): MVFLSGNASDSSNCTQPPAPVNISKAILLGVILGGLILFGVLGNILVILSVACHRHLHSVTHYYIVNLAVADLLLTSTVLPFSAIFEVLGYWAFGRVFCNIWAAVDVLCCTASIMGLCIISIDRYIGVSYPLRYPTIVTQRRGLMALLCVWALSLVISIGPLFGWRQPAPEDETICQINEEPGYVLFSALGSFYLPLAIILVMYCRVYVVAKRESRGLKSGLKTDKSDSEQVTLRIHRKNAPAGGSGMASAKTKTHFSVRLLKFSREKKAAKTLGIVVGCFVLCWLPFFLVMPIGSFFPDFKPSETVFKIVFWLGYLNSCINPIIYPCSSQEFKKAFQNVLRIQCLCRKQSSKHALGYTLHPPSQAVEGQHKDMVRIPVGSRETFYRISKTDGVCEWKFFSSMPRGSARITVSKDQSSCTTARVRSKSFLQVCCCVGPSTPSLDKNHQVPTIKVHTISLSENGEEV
Protocol: (§1) Competitive radioligand binding assays were used to determine the affinity of the test compounds for a particular receptor. Various concentrations of the non-labelled test compound were added to the incubation mixture with the membrane fraction, containing the receptor of interest, and a fixed low concentration (nM) of the radioligand. During the incubation the radioligand bound to the receptor, but this was inhibited by the non-labelled test compound in proportion to its binding affinity and concentration.
(§2) Cell lines were established that stably express the human variant of the receptor under investigation after transfection with the appropriate cDNA (Table 1). Transfected cells were grown under standard culture conditions, and membrane fractions were obtained upon centrifugation and homogenisation of the cells. Optimal membrane dilutions for binding studies were determined and aliquots were stored at −70° C. until use. In a 96-well plate format, the appropriate radioligand was added to the membrane preparation containing the receptor under investigation. Compound solutions were prepared in DMSO, and diluted 100-fold into the multiwell plate to a final test concentration of 10^−9 to 10^−5 M. After incubation with the test compound, the unbound radioligand was removed by filtration on G/F filters with a Filtermate 96. Microscint™ was added to the washed filter plates and the radioactivity bound to the receptor was measured by liquid scintillation counting in a TopCount (Packard). To measure the Non-Specific Binding (NSB), a high concentration of the non-radiolabeled ligand was added to wells containing the membrane fraction and the radioligand.
Using in house developed software, a best-fit curve was fitted by a minimum sum of squares method to the plot of % inhibition vs. concentration of the test compound. From this, the pIC50 value (inhibitory concentration causing 50% displacement of specific binding) was determined, as well as an estimate of the slope of the plot (Hill coefficient).

[2] = target: T2, hERG (Homo sapiens, UniProt Q12809); test: Competitive radioligand binding, hERG; details: HEK293 membranes, 3H-dofetilide 5 nM
T2 construct: expressed in transfected cells; host or cells: HEK293 (membrane fraction)
T2 sequence (Q12809 whole entry): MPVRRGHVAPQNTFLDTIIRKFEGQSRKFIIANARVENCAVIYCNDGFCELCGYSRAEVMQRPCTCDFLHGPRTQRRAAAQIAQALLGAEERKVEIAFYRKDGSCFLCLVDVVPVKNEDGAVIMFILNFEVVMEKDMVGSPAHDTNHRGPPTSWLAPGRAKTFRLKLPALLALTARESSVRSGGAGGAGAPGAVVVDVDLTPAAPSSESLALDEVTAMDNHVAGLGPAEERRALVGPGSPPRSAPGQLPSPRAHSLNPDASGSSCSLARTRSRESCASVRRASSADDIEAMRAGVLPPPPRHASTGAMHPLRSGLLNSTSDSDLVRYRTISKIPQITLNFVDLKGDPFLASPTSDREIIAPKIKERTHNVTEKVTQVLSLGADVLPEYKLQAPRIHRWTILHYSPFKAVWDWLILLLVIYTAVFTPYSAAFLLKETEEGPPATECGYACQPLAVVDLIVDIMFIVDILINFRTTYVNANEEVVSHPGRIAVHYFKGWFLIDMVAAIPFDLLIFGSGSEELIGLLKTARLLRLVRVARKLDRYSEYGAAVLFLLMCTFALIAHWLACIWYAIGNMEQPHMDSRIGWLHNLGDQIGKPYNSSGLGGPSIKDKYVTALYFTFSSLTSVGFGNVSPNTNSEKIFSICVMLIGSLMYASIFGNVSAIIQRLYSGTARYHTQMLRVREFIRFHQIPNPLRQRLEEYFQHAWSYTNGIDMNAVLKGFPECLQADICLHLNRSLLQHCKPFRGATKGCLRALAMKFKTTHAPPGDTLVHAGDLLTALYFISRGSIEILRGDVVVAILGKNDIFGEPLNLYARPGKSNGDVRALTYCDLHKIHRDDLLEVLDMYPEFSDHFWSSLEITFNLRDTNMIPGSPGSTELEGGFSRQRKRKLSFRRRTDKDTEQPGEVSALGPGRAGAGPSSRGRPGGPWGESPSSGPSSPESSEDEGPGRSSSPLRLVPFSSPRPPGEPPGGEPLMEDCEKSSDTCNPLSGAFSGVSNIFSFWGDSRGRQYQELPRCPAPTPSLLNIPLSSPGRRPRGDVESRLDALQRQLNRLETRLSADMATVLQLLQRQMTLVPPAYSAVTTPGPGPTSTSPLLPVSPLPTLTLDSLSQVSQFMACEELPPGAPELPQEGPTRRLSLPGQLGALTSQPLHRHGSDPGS
Protocol: as §1, §2
From this, the pIC50 value (inhibitory concentration causing 50% displacement of specific binding) was determined, as well as an estimate of the slope of the plot (Hill coefficient).

[3] = target: T3, hERG potassium channel (Homo sapiens, UniProt Q12809); test: hERG-transfected HEK293 cells using a Patch Express apparatus; type: cell-based; details: bracketed value in cell = % block by vehicle
T3 construct: expressed in transfected cells; host or cells: HEK293
T3 sequence (Q12809 whole entry): as above
Protocol: Experiments were performed using HEK293 cells stably expressing the hERG potassium channel. Cells were grown at 37° C. and 5% CO2 in culture flasks in MEM Medium supplemented with 10% heat-inactivated fetal bovine serum, 1% L-Glutamine-Penicillin-Streptomycin-solution, 1% non-essential amino acids (100×), 1% sodium pyruvate (100 mM) and 0.8% Geneticin (50 mg/ml). Before use the cells were subcultured in MEM medium in the absence of 5 ml L-Glutamine-Penicillin-Streptomycin. For use in the automated patch-clamp system PatchXpress 7000A (Axon Instruments) cells were harvested to obtain cell suspension of single cells. Extracellular solution contained (mM): 150 NaCl, 4 KCl, 1 MgCl2, 1.8 CaCl2, 10 HEPES, 5 Glucose (pH 7.4 with NaOH). Pipette solution contained (mM): 120 KCl, 10 HEPES, 5 EGTA, 4 ATP-Mg2, 2 MgCl2, 0.5 CaCl2 (pH 7.2 with KOH).
Patch-clamp experiments were performed in the voltage-clamp mode and whole-cell currents were recorded with an automated patch-clamp assay utilizing the PatchXpress 7000A system (Axon Instruments). Current signals were amplified and digitized by a Multiclamp amplifier, stored and analyzed by using the PatchXpress, DataXpress software and Igor 5.0 (Wavemetrics).
The holding potential was −80 mV. The hERG current (K+-selective outward current) was determined as the maximal tail current at −40 mV after a 2 second depolarization to +60 mV. Pulse cycling rate was 15 s. Before each test pulse a short pulse (0.5 s) from the holding potential to −60 mV was given to determine (linear) leak current. After establishing whole-cell configuration and a stability period, the vehicle (aqueous DMSO control) was applied for 5 minutes followed by the test substance by increasing concentrations of 10^−7 M, 3×10^−7 M and 3×10^−6 M.
Each concentration of the test substance was applied twice. The effect of each concentration was determined after 5 min as an average current of 3 sequential voltage pulses. To determine the extent of block the residual current was compared with vehicle pre-treatment. Data are expressed as % block at the indicated concentrations in Table 4. The values between brackets refer to % block by the vehicle.

| SMILES | IC50 [1] [nM] | IC50 [2] [nM] | % block of the hERG channel ([3]; 100 nM) | % block of the hERG channel ([3]; 300 nM) | % block of the hERG channel ([3]; 3000 nM) | pIC50 hERG [2] |
| --- | --- | --- | --- | --- | --- | --- |
| COc1cc(N)c(Cl)cc1C(=O)N[C@@H]1CCN(CCCOc2ccc(F)cc2)C[C@H]1F (racemic) [(±)-7, trans-4-amino-5-chloro-N-{3-fluoro-1-[3-(4-fluorophenoxy)-propyl]-piperidin-4-yl}-2-methoxybenzamide] | > 10000 | 234 | 35 (7) % | 62 (15) % | 94 (21) % | – |
| COc1cc(N)c(Cl)cc1C(=O)N[C@H]1CCN(CCCOc2ccc(F)cc2)C[C@H]1F (racemic) [(±)-12, cis-4-amino-5-chloro-N-{3-fluoro-1-[3-(4-fluorophenoxy)-propyl]-piperidin-4-yl}-2-methoxybenzamide] | 447 | 316 | 40 (7) % | 73 (15) % | 96 (21) % | – |
| COc1cc(N)c(Cl)cc1C(=O)NC1CCN(CCCOc2ccc(F)cc2)CC1(F)F (racemic) [(±)-17, 4-amino-5-chloro-N-{3,3-difluoro-1-[3-(4-fluorophenoxy)-propyl]-piperidin-4-yl}-2-methoxybenzamide] | > 10000 | 7590 | 9 (7) % | 17 (15) % | 58 (21) % | – |
| COc1cc(N)c(Cl)cc1C(=O)N[C@@H]1CCN(CCCOc2ccc(F)cc2)C[C@H]1F (single isomer, unassigned) [(+)-7, trans-4-amino-5-chloro-N-{3-fluoro-1-[3-(4-fluorophenoxy)-propyl]-piperidin-4-yl}-2-methoxybenzamide] | 525 | 288 | – | – | – | – |
| COc1cc(N)c(Cl)cc1C(=O)N[C@H]1CCN(CCCOc2ccc(F)cc2)C[C@H]1F (single isomer, unassigned) [(+)-12, cis-4-amino-5-chloro-N-{3-fluoro-1-[3-(4-fluorophenoxy)-propyl]-piperidin-4-yl}-2-methoxybenzamide] | 550 | 178 | – | – | – | – |
| COc1cc(N)c(Cl)cc1C(=O)N[C@@H]1CCN(CCCOc2ccc(F)cc2)C[C@H]1F (single isomer, unassigned) [(−)-7, trans-4-amino-5-chloro-N-{3-fluoro-1-[3-(4-fluorophenoxy)-propyl]-piperidin-4-yl}-2-methoxybenzamide] | 398 | 316 | – | – | – | – |
| COc1cc(N)c(Cl)cc1C(=O)N[C@H]1CCN(CCCOc2ccc(F)cc2)C[C@H]1F (single isomer, unassigned) [(−)-12, cis-4-amino-5-chloro-N-{3-fluoro-1-[3-(4-fluorophenoxy)-propyl]-piperidin-4-yl}-2-methoxybenzamide] | 331 | 191 | – | – | – | – |
| COc1cc(N)c(Cl)cc1C(=O)NC1CCN(CCCOc2ccc(F)cc2)CC1(F)F (single isomer, unassigned) [Compound (−)-17, 4-amino-5-chloro-N-{3,3-difluoro-1-[3-(4-fluorophenoxy)-propyl]-piperidin-4-yl}-2-methoxybenzamide] | 7760 | – | 3 (7) % | 11 (10) % | 47 (11) % | <5 |
| COc1cc(N)c(Cl)cc1C(=O)NC1CCN(CCCOc2ccc(F)cc2)CC1(F)F (single isomer, unassigned; (+)) [(+)-17, 4-amino-5-chloro-N-{3,3-difluoro-1-[3-(4-fluorophenoxy)-propyl]-piperidin-4-yl}-2-methoxybenzamide] | > 10000 | > 10000 | 14 (7) % | 21 (10) % | 52 (11) % | – |
